Test results reported in the NIST ThermoML archive (doi:10.1016/j.fluid.2018.08.011).
Where “and” joins values, the source holds several entries; their conditions need not be identical. Equal entries are not always repeated. ± gives the expanded uncertainty stated by the source.

How the values were obtained:
[1] = for surface tension liquid-gas: Drop volume; for mass density / speed of sound: 101.3 kPa, Liquid; for mass density: Vibrating tube method; for speed of sound: Frequency=3 MHz, Single path-length method
[2] = cn = amount concentration of the nth substance listed, in mol/dm3; settings: Drop volume

O [water]
[1]
Settings | mass density [kg/m3] | speed of sound [m/s] | surface tension liquid-gas
283.15 K | 999.707 ± 0.033 | – | 73.92 ± 0.28 mN/m
285.65 K | 999.444 ± 0.033 | 1457.3 ± 0.24 | –
290.65 K | 998.689 ± 0.034 | 1474.7 ± 0.23 | –
295.65 K | 997.658 ± 0.034 | 1490 ± 0.23 | –
298.15 K | – | – | 71.77 ± 0.28 mN/m
300.65 K | 996.376 ± 0.035 | 1503.3 ± 0.23 | –
305.65 K | 994.867 ± 0.036 | 1514.9 ± 0.23 | –
310.15 K | – | – | 70.13 ± 0.27 mN/m and 69.93 ± 0.39 mN/m
310.65 K | 993.147 ± 0.036 | 1524.7 ± 0.23 | –
313.15 K | – | 1529 ± 0.23 | –
315.65 K | 991.235 ± 0.037 | 1533 ± 0.23 | –
318.15 K | – | 1536.6 ± 0.23 | –
320.65 K | 989.14 ± 0.038 | 1539.8 ± 0.23 | –
323.15 K | 988.029 ± 0.039 | – | 68.15 ± 0.27 mN/m and 67.79 ± 0.39 mN/m

O [water] + CCCCCCCCCCCCO[C@@H]1O[C@H](CO)[C@@H](O)[C@H](O)[C@H]1O
[2], c2 = 0
Settings | surface tension liquid-gas [mN/m]
310.15 K | 69.93 ± 0.27
323.15 K | 67.79 ± 0.27

CCCCCCCCCCCCO[C@@H]1O[C@H](CO)[C@@H](O)[C@H](O)[C@H]1O [dodecyl beta.-D-glucopyranoside] + O
surface tension liquid-gas [mN/m], [2]
Settings | 310.15 K | 323.15 K
c1 = 2.33e-05 | 52.97 ± 0.25 | 52.98 ± 0.24
c1 = 3.58e-05 | 46.13 ± 0.23 | 46.38 ± 0.23
c1 = 5.16e-05 | 41.28 ± 0.22 | 41.5 ± 0.22
c1 = 6.49e-05 | 38.47 ± 0.21 | 38.5 ± 0.2
c1 = 7.97e-05 | 35.61 ± 0.2 | –
c1 = 9.31e-05 | 34.42 ± 0.19 | 35.04 ± 0.2
c1 = 0.000106 | 33.04 ± 0.19 | 33.77 ± 0.19
c1 = 0.000123 | 31.7 ± 0.19 | 32.19 ± 0.19
c1 = 0.000131 | 31.19 ± 0.19 | 31.35 ± 0.19
c1 = 0.000146 | 29.75 ± 0.18 | 29.99 ± 0.18
c1 = 0.000162 | 30.12 ± 0.18 | 29.72 ± 0.18
c1 = 0.000169 | 29.25 ± 0.18 | 28.68 ± 0.18
c1 = 0.000177 | 29.51 ± 0.18 | 28.83 ± 0.18
c1 = 0.000187 | 29.14 ± 0.18 | 28.4 ± 0.18
c1 = 0.000198 | 29.09 ± 0.18 | 28 ± 0.17
c1 = 0.00021 | 29.52 ± 0.18 | 28.11 ± 0.17
c1 = 0.000216 | 29.36 ± 0.18 | 28.07 ± 0.18
c1 = 0.000227 | 29.03 ± 0.18 | 28.56 ± 0.17
c1 = 0.000241 | 29.02 ± 0.18 | 28.29 ± 0.18
c1 = 0.000258 | 29.1 ± 0.18 | 27.87 ± 0.18
